Laboratory results published in patent US10287274B2, “5-hydroxytryptamine receptor 7 activity modulators and their method of use” (TEMPLE UNIVERSITY OF THE COMMONWEALTH SYSTEM OF HIGHER …, priority 2013, dated 2019).

Target: Serotonin 5HT7 receptors (Homo sapiens (Human), UniProt P34969)
Experiment: Radiolabel Binding Studies for Serotonin 5HT7 receptors
Conditions: read-out: 5-HT7 % inhib @ 10 uM
Method: Radiolabel Binding Studies for Serotonin 5HT7 Receptors, Method 1:
Eleven dilutions (5× assay concentration) of the compound of the disclosure and chlorpromazine are prepared in the Assay Buffer by serial dilution to yield final corresponding assay concentrations ranging from 10 pM to 10 μM.
A stock concentration of 5 nM [^3H]LSD (lysergic acid diethyl amide) is prepared in 50 mM Tris-HCl, 10 mM MgCl2, 1 mM EDTA, pH 7.4 (Assay Buffer). Aliquots (50 μl) of radioligand are dispensed into the wells of a 96-well plate containing 100 μl of Assay Buffer. Duplicate 50-μl aliquots of the compound of the disclosure test and chlorpromazine positive control reference compound serial dilutions are added.
Membrane fractions of cells expressing recombinant 5HT7 receptors (50 μL) are dispensed into each well. […]
The 250-μl reactions are incubated at room temperature for 1.5 hours, then harvested by rapid filtration onto 0.3% polyethyleneimine-treated, 96-well filter mats using a 96-well Filtermate harvester. […] The filter mats are dried, then scintillant is added to the filters and the radioactivity retained on the filters is counted in a Microbeta scintillation counter. […]

Sequence of Serotonin 5HT7 receptors (P34969 whole entry): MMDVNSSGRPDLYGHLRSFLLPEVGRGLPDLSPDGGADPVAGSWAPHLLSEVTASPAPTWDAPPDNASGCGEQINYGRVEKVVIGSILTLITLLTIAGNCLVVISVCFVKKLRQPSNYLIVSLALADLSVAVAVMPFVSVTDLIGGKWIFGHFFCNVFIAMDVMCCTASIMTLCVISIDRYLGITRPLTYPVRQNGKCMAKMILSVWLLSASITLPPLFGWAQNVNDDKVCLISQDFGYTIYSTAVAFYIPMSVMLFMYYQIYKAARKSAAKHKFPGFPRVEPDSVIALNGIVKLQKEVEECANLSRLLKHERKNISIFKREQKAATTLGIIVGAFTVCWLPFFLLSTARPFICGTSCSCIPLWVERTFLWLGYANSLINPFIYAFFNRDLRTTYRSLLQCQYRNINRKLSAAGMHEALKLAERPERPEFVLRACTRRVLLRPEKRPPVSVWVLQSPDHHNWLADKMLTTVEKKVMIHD

**Q.** How did the inhibition at 10 µM turn out when `CC1(C)CC(CCN2CCN(c3ccccc3C#N)CC2)OC1=O` (stereo not shown) [Entry 19] was run?
**A.** Its inhibition at 10 µM is 85.7%.
